# ChEMBL document CHEMBL1124471, “Design and synthesis of inhibitors of N8-acetylspermidine deacetylase” (J Med Chem, 1989)
# Tested on: N8-acetylspermidine deacetylase (Rattus norvegicus); call rule not given here
# Test: Inhibition of [acetyl-3H]-N8-Acetylspermidine deacetylase; NI = No inhibition
structure (smiles),measurement,value
COC(=O)NCCCCCCN,Ki app,Not Active
